pEC50, pIC50: −log10 of the molar value.
Assays:
Glucocorticoid receptor [1] = molecular target: T1, Glucocorticoid receptor (Homo sapiens, UniProt P04150); experiment: Transrepression activity at glucocorticoid receptor in human H292 cells assessed as inhibition of TNF-stimulated IL-8 production; type: cell-based
T1 sequence (P04150 whole entry): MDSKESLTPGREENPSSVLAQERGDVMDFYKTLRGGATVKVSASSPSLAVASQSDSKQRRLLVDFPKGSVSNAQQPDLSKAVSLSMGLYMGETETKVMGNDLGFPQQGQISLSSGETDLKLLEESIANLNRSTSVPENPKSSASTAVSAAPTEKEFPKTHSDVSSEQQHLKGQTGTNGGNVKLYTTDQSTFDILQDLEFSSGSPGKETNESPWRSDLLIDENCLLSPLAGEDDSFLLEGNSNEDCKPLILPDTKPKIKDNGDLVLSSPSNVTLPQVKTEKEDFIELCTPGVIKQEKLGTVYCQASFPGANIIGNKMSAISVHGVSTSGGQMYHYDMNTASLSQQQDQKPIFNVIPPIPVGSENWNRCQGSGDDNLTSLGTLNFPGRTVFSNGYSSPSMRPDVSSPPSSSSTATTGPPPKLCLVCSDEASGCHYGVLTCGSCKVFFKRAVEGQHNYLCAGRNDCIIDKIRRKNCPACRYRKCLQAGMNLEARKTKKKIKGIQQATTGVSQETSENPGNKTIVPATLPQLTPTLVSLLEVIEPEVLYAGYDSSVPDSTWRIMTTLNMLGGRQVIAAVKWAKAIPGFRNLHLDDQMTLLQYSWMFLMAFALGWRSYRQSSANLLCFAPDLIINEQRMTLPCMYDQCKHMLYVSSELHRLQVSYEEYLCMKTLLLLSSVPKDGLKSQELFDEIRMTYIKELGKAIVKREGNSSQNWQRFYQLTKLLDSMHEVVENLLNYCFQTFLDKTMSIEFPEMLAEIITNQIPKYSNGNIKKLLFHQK

Glucocorticoid receptor [2] = molecular target: T2, Glucocorticoid receptor (Rattus norvegicus, UniProt P06536); experiment: Transactivation of glucocorticoid receptor in rat H42E cells assessed as induction of TAT measuring degradation of tyrosine to p-hydroxy phenyl pyruvate at 1 uM relative to prednisolone; type: cell-based; conditions: read-out: Efficacy
T2 sequence (P06536 whole entry): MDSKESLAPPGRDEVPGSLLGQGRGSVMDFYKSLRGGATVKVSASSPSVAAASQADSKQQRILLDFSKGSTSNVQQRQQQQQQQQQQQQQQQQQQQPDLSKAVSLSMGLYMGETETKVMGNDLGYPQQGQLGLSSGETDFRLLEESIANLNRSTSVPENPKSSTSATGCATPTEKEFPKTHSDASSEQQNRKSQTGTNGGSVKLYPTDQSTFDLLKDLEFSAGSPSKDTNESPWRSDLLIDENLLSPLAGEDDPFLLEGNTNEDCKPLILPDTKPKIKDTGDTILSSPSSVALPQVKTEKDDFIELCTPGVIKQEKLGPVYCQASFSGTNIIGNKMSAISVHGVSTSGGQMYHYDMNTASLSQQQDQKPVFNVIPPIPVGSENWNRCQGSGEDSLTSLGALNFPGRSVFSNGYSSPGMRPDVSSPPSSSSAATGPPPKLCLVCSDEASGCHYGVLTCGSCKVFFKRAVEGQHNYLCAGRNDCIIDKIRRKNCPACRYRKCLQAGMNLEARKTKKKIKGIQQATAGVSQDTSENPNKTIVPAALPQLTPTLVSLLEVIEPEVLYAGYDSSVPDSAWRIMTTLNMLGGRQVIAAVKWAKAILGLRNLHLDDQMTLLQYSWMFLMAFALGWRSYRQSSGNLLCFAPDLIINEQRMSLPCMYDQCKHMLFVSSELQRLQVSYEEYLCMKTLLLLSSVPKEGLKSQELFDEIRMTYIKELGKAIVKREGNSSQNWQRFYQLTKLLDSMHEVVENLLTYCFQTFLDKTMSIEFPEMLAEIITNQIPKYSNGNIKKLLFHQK

Glucocorticoid receptor [3] = molecular target: T1, Glucocorticoid receptor; experiment: Transactivation of glucocorticoid receptor in human HepG2 cells assessed as induction of TAT measuring degradation of tyrosine to p-hydroxy phenyl pyruvate at 1 uM relative to untreated control; type: cell-based; conditions: hepg2, 1 µM
Glucocorticoid receptor [4] = molecular target: T2, Glucocorticoid receptor; experiment: Transactivation of glucocorticoid receptor in rat H42E cells assessed as induction of TAT measuring degradation of tyrosine to p-hydroxy phenyl pyruvate; type: cell-based; conditions: read-out: IC50 (the source's name)
Rattus norvegicus [5] = experiment: Antiinflammatory activity against Brown Norway rat allergic lung inflammation model assessed as total cell inhibition at 10 mg/kg, po for 3 days; type: functional; design: scale not given: the % may be the effect or the level left
Rattus norvegicus [6] = experiment: Toxicity in Brown Norway rat allergic lung inflammation model assessed as decrease in thymus weight at 10 mg/kg, po for 3 days; type: organism-based; design: dose 10 mg/kg, route oral; scale not given: the % may be the effect or the level left; conditions: in vivo, 72 h
[7] = AUC in Brown Norway rat at 10 mg/kg, po; type: ADME, organism-based; design: dose 10 mg/kg, route oral; conditions: plasma
Glucocorticoid receptor [8] = molecular target: T1, Glucocorticoid receptor; experiment: Transactivation of glucocorticoid receptor in human HepG2 cells assessed as induction of TAT measuring degradation of tyrosine to p-hydroxy phenyl pyruvate; type: cell-based; conditions: read-out: IC50 (the source's name)

| Compound | pIC50 (Glucocorticoid receptor [1]) | Emax at 1 µM (Glucocorticoid receptor [2]) | Efficacy (Glucocorticoid receptor [3]) | pEC50 (Glucocorticoid receptor [4]) | Activity (Rattus norvegicus [5]) | Activity (Rattus norvegicus [6]) | AUC [7] | pEC50 (Glucocorticoid receptor [8]) |
| --- | --- | --- | --- | --- | --- | --- | --- | --- |
| C[C@]12C=CC(=O)C=C1CC[C@@H]1[C@@H]2[C@@H](O)C[C@@]2(C)[C@H]1CC[C@]2(O)C(=O)CSc1nc(-c2ccccc2)cs1 | 6.52 | 9% | 42% | – | – | – | – | – |
| C[C@@H]1C[C@H]2[C@@H]3CCC4=CC(=O)C=C[C@]4(C)[C@H]3[C@@H](O)C[C@]2(C)[C@@]1(O)C(=O)CSc1nc2ncccc2o1 | 8.22 | 37% | 32% | 6.87 | – | – | – | – |
| Cc1cccc(SCC(=O)[C@@]2(O)[C@H](C)C[C@H]3[C@@H]4CCC5=CC(=O)C=C[C@]5(C)[C@H]4[C@@H](O)C[C@@]32C)n1 | 8.77 | 29% | 33% | – | – | – | – | – |
| C[C@@H]1C[C@H]2[C@@H]3CCC4=CC(=O)C=C[C@]4(C)[C@H]3[C@@H](O)C[C@]2(C)[C@@]1(O)C(=O)CSc1cnc2ccccc2n1 | 7.42 | 3% | 54% | – | 85% | 65% | 1950 ng·h/mL | – |
| C[C@@H]1C[C@H]2[C@@H]3CCC4=CC(=O)C=C[C@]4(C)[C@H]3[C@@H](O)C[C@]2(C)[C@@]1(O)C(=O)CSc1nnc(-c2ccccc2)o1 | 8.29 | 65% | 57% | 6.13 | – | – | – | 7.10 |
| C[C@]12C=CC(=O)C=C1CC[C@@H]1[C@@H]2[C@@H](O)C[C@@]2(C)[C@H]1CC[C@]2(O)C(=O)CSc1nc2ncccc2[nH]1 | 7.24 | 2% | 7% | – | – | – | – | – |
| C[C@]12C=CC(=O)C=C1CC[C@@H]1[C@@H]2[C@@H](O)C[C@@]2(C)[C@H]1CC[C@]2(O)C(=O)CSc1nc2ncccc2o1 | 7.76 | 29% | 21% | – | 56% | 9% | 2940 ng·h/mL | – |
| C[C@@H]1C[C@H]2[C@@H]3CCC4=CC(=O)C=C[C@]4(C)[C@H]3[C@@H](O)C[C@]2(C)[C@@]1(O)C(=O)CO | 8.80 | – | 125% | – | – | – | – | 7.80 |
| C[C@@H]1C[C@H]2[C@@H]3CCC4=CC(=O)C=C[C@]4(C)[C@H]3[C@@H](O)C[C@]2(C)[C@@]1(O)C(=O)CSc1ncnc2ccccc12 | 7.63 | 8% | 30% | – | – | – | – | – |
| C[C@]12C=CC(=O)C=C1CC[C@@H]1[C@@H]2[C@@H](O)C[C@@]2(C)[C@H]1CC[C@]2(O)C(=O)CSc1nc2ccccc2o1 | 7.87 | 32% | 22% | – | – | – | 26 ng·h/mL | – |
| C[C@]12C=CC(=O)C=C1CC[C@@H]1[C@@H]2[C@@H](O)C[C@@]2(C)[C@H]1CC[C@]2(O)C(=O)CSc1ccccn1 | 7.36 | 23% | 22% | 6.15 | – | – | – | 6.62 |
| C[C@@H]1C[C@H]2[C@@H]3CCC4=CC(=O)C=C[C@]4(C)[C@H]3[C@@H](O)C[C@]2(C)[C@@]1(O)C(=O)CSc1nc2ccccc2n1C | 7.16 | 2% | 13% | – | – | – | – | – |
| Cc1ccnc(SCC(=O)[C@@]2(O)CC[C@H]3[C@@H]4CCC5=CC(=O)C=C[C@]5(C)[C@H]4[C@@H](O)C[C@@]32C)n1 | 7.94 | 6% | 6% | – | – | – | – | – |
| C[C@@H]1C[C@H]2[C@@H]3CCC4=CC(=O)C=C[C@]4(C)[C@H]3[C@@H](O)C[C@]2(C)[C@@]1(O)C(=O)CSc1ccc2ccccc2n1 | 7.33 | 45% | 19% | 7.72 | 73% | 66% | 5280 ng·h/mL | – |
| C[C@@H]1C[C@H]2[C@@H]3CCC4=CC(=O)C=C[C@]4(C)[C@H]3[C@@H](O)C[C@]2(C)[C@@]1(O)C(=O)CSc1nccc2ccccc12 | 7.75 | 6% | 8% | – | – | – | – | – |
| C[C@]12C=CC(=O)C=C1CC[C@@H]1[C@@H]2[C@@H](O)C[C@@]2(C)[C@H]1CC[C@]2(O)C(=O)CSc1nc2ccccc2s1 | – | 19% | – | – | 45% | 15% | 1220 ng·h/mL | – |
| CCn1c(SCC(=O)[C@@]2(O)CC[C@H]3[C@@H]4CCC5=CC(=O)C=C[C@]5(C)[C@H]4[C@@H](O)C[C@@]32C)nc2ccccc21 | 7.38 | 10% | 9% | – | – | – | – | – |
| C[C@]12C=CC(=O)C=C1CC[C@@H]1[C@@H]2[C@@H](O)C[C@@]2(C)[C@H]1CC[C@]2(O)C(=O)CSc1nc2cccnc2s1 | 6.93 | 7% | 6% | – | – | – | – | – |
| C[C@@H]1C[C@H]2[C@@H]3CCC4=CC(=O)C=C[C@]4(C)[C@H]3[C@@H](O)C[C@]2(C)[C@@]1(O)C(=O)CSc1nc2ccccc2s1 | 8.24 | 35% | 62% | 6.64 | – | – | – | 6.00 |
| C[C@@H]1C[C@H]2[C@@H]3CCC4=CC(=O)C=C[C@]4(C)[C@H]3[C@@H](O)C[C@]2(C)[C@@]1(O)C(=O)CSc1nc2ccccc2o1 | 8.36 | – | – | – | – | – | – | – |
| C[C@@H]1C[C@H]2[C@@H]3CCC4=CC(=O)C=C[C@]4(C)[C@H]3[C@@H](O)C[C@]2(C)[C@@]1(O)C(=O)CSc1nc2ccccc2[nH]1 | 7.44 | 3% | 30% | – | – | – | – | – |
| C[C@]12C=CC(=O)C=C1CC[C@@H]1[C@@H]2[C@@H](O)C[C@@]2(C)[C@H]1CC[C@]2(O)C(=O)CSc1ncc2ccccc2n1 | 7.16 | 2% | 10% | – | 46% | 11% | 606 ng·h/mL | – |

— ChEMBL document CHEMBL1938296, “Steroidal C-21 heteroaryl thioethers (Part 2): discovery of orally bioavailable selective glucocorticoid receptor modulators (dissociated steroids)” (Bioorg Med Chem Lett, 2012)
